Results from US20240415915A1, “TRADITIONAL CHINESE MEDICINE FERMENTED PREPARATION FOR PREVENTING AND TREATING GOUT, ITS PREPARATION METHOD AND APPLICATION” (priority 2023, published 2024).

System: mice with hyperuricemia
Assay: Effect on serum uric acid (UA) levels in mice with hyperuricemia
Type: in vivo
Details: 0.02 g/kg orally once a day, 7 days; hypoxanthine + potassium oxonate model; model group 768.30, blank 145.80
Excerpt: 60 mice (each mouse with a weight of (20±2) g) are taken and randomly divided into 6 groups, with 10 mice in each group, denoted as a blank group, a model group, a benzbromarone group, a high dose traditional Chinese medicine fermented preparation group, a medium dose traditional Chinese medicine fermented preparation group, and a low dose traditional Chinese medicine fermented preparation group. After 5 days of adaptive breeding, except for the blank group (injected with an equal volume of physiological saline), the mice in other groups are injected intraperitoneally with 0.3 g/kg/mouse of hypoxanthine +0.05 g/kg/mouse of potassium oxonate (i.e., oxonic acid potassium salt) daily for model replication, for 7 consecutive days. At the same time, the mice in the benzbromarone group are administered orally at a dose of 0.02 g/kg/mouse once a day, the mice in the high, medium and low dose traditional Chinese medicine fermented preparation groups are administered orally at a dose of 2 mL/kg/mouse, 1 mL/kg/mouse, and 0.5 mL/kg/mouse once, respectively, while the mice in the blank group and the model group are given physiological saline (1 mL/kg) orally, for 7 consecutive days. After 7 days, tail vein blood is collected from the mice in all groups, and then centrifuged to separate […] to obtain serum, the serum is taken to measure serum UA levels.

In the case of `CCc1oc2ccccc2c1C(=O)c1cc(Br)c(O)c(Br)c1` [Benzbromarone, benzbromarone], the “Serum UA level” value was 302.30 µmol/L.
